Patent US20050101595A1, “N-containing cycloalkyl-substituted amino-thiazole derivatives and pharmaceutical compositions for inhibiting cell proliferation and methods for their use” (PFIZER INC., priority 2003, published 2005)

Key:
HCT-116 cell line = assay: Inhibition of cell growth, tetrazolium salt (MTT) assay; type: cell-based; conditions: Homo sapiens, HCT-116, HCT-116 cells; MTT; compound at 0.175 uM
Outline: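 Growth inhibition is scored relative to cells receiving only 0.5% (v/v) DMSO. Plated cells rest 4 h, then take compound for three to five days at 37° C; MTT reduction to formazan is read at 540 nm.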

CDK2/Cyclin A = CDK2/Cyclin A (Homo sapiens, UniProt P24941); assay: Inhibition of CDK2/Cyclin A Retinoblastoma Kinase Activity; type: biochemical; conditions: read-out: % inhibition of CDK2 (@ 0.05 μM), compound at 0.05 μM
Outline: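 CDK2 (10 or 19 nM), insect-cell expressed, gel-filtration purified with truncated cyclin A; Rb fragment substrate; 25 μM ATP; 10 mM HEPES pH 7.4, 10 mM MgCl2; 30° C, 60 or 75 min; EDTA stop; phosphocellulose/nitrocellulose capture, phosphorimager. % inhibition vs DMSO control, no-enzyme background subtracted.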

Compound | inhibition at 0.175 µM (HCT-116 cell line) [%] | inhibition at 0.05 µM (CDK2/Cyclin A) [%]
Cc1cccc(CNCCCS(=O)(=O)N2CCC(Nc3nc(N)c(C(=O)c4c(F)cccc4F)s3)CC2)c1 [Example V79] | 76 | 93
Cc1ccc(CNCCCS(=O)(=O)N2CCC(Nc3nc(N)c(C(=O)c4c(F)cccc4F)s3)CC2)cc1 [Example V80] | 21 | 91
CC(O)CCNCCCS(=O)(=O)N1CCC(Nc2nc(N)c(C(=O)c3c(F)cccc3F)s2)CC1 (stereo not shown) [Example V81] | 5 | 78
CN(CCCS(=O)(=O)N1CCC(Nc2nc(N)c(C(=O)c3c(F)cccc3F)s2)CC1)Cc1ccco1 [Example V82] | 60 | 88
CCC(O)CNCCCS(=O)(=O)N1CCC(Nc2nc(N)c(C(=O)c3c(F)cccc3F)s2)CC1 (stereo not shown) [Example V83] | 0 | 79
Nc1nc(NC2CCN(S(=O)(=O)CCCNc3nnn[nH]3)CC2)sc1C(=O)c1c(F)cccc1F [Example V84] | 0 | 24
CCCCNCCCS(=O)(=O)N1CCC(Nc2nc(N)c(C(=O)c3c(F)cccc3F)s2)CC1 [Example V85] | 29 | 82
CNCCCS(=O)(=O)N1CCC(Nc2nc(N)c(C(=O)c3c(F)cccc3F)s2)CC1 [Example V86] | 22 | 61
NC(=O)[C@@H]1CCCN1CCCS(=O)(=O)N1CCC(Nc2nc(N)c(C(=O)c3c(F)cccc3F)s2)CC1 [Example V87] | 3 | 80
Nc1nc(NC2CCN(S(=O)(=O)CCCN3CCOCC3)CC2)sc1C(=O)c1c(F)cccc1F [Example V88] | 17 | 77
CCCCCNCCCS(=O)(=O)N1CCC(Nc2nc(N)c(C(=O)c3c(F)cccc3F)s2)CC1 [Example V89] | 42 | 85
Nc1nc(NC2CCN(S(=O)(=O)CCCNCCCCO)CC2)sc1C(=O)c1c(F)cccc1F [Example V90] | 21 | 79
Nc1nc(NC2CCN(S(=O)(=O)CCCNCCO)CC2)sc1C(=O)c1c(F)cccc1F [Example V91] | 13 | 81
N#CCCNCCCS(=O)(=O)N1CCC(Nc2nc(N)c(C(=O)c3c(F)cccc3F)s2)CC1 [Example V92] | 9 | 81
CC(C)NCCCS(=O)(=O)N1CCC(Nc2nc(N)c(C(=O)c3c(F)cccc3F)s2)CC1 [Example V93] | 11 | 84
Nc1nc(NC2CCN(S(=O)(=O)CCCNCCc3ccncc3)CC2)sc1C(=O)c1c(F)cccc1F [Example V94] | 0 | 87
CN(C)CCN(C)CCCS(=O)(=O)N1CCC(Nc2nc(N)c(C(=O)c3c(F)cccc3F)s2)CC1 [Example V95] | 3 | 70
CC(C)OCCCNCCCS(=O)(=O)N1CCC(Nc2nc(N)c(C(=O)c3c(F)cccc3F)s2)CC1 [Example V96] | 10 | 84
CCC(COC)NCCCS(=O)(=O)N1CCC(Nc2nc(N)c(C(=O)c3c(F)cccc3F)s2)CC1 (stereo not shown) [Example V97] | 28 | 81
CCOCCNCCCS(=O)(=O)N1CCC(Nc2nc(N)c(C(=O)c3c(F)cccc3F)s2)CC1 [Example V98] | 21 | 81
CN(C)C1CCN(CCCS(=O)(=O)N2CCC(Nc3nc(N)c(C(=O)c4c(F)cccc4F)s3)CC2)C1 (stereo not shown) [Example V99] | 0 | 69
Nc1nc(NC2CCN(S(=O)(=O)CCCNCc3cccc(F)c3)CC2)sc1C(=O)c1c(F)cccc1F [Example V100] | 88 | 91
Nc1nc(NC2CCN(S(=O)(=O)CCCN3CCSC3)CC2)sc1C(=O)c1c(F)cccc1F [Example V101] | 22 | 80
CC1CCN(CCCS(=O)(=O)N2CCC(Nc3nc(N)c(C(=O)c4c(F)cccc4F)s3)CC2)CC1 [Example V102] | 89 | 80

Compound | inhibition at 0.175 µM (HCT-116 cell line) [%] | inhibition at 0.05 µM (CDK2/Cyclin A) [%]
C=CCNCCCS(=O)(=O)N1CCC(Nc2nc(N)c(C(=O)c3c(F)cccc3F)s2)CC1 [Example V103] | 37 | 84
Nc1nc(NC2CCN(S(=O)(=O)CCCN3CCSCC3)CC2)sc1C(=O)c1c(F)cccc1F [Example V104] | 42 | 86
CCCN(CCC#N)CCCS(=O)(=O)N1CCC(Nc2nc(N)c(C(=O)c3c(F)cccc3F)s2)CC1 [Example V105] | 0 | 84
CCCN(CCO)CCCS(=O)(=O)N1CCC(Nc2nc(N)c(C(=O)c3c(F)cccc3F)s2)CC1 [Example V106] | 11 | 82
COCCN(C)CCCS(=O)(=O)N1CCC(Nc2nc(N)c(C(=O)c3c(F)cccc3F)s2)CC1 [Example V107] | 36 | 78
CCN(CCCCO)CCCS(=O)(=O)N1CCC(Nc2nc(N)c(C(=O)c3c(F)cccc3F)s2)CC1 [Example V108] | 2 | 79
Cc1ccnc(NCCCS(=O)(=O)N2CCC(Nc3nc(N)c(C(=O)c4c(F)cccc4F)s3)CC2)c1 [Example V109] | 0 | 85
Nc1nc(NC2CCN(S(=O)(=O)CCCNc3ccc4ccccc4n3)CC2)sc1C(=O)c1c(F)cccc1F [Example V110] | 2 | 67
CCc1ccnc(NCCCS(=O)(=O)N2CCC(Nc3nc(N)c(C(=O)c4c(F)cccc4F)s3)CC2)c1 [Example V111] | 5 | 86
CCc1ccc(C)cc1NCCCS(=O)(=O)N1CCC(Nc2nc(N)c(C(=O)c3c(F)cccc3F)s2)CC1 [Example V112] | 57 | 88
CCc1cccc(NCCCS(=O)(=O)N2CCC(Nc3nc(N)c(C(=O)c4c(F)cccc4F)s3)CC2)n1 [Example V113] | 19 | 79
Nc1nc(NC2CCN(S(=O)(=O)CCCNCCc3cccnc3)CC2)sc1C(=O)c1c(F)cccc1F [Example V114] | 17 | 86
CC(C)N1CCN(CCCS(=O)(=O)N2CCC(Nc3nc(N)c(C(=O)c4c(F)cccc4F)s3)CC2)CC1 [Example V115] | 9 | 75
Nc1nc(NC2CCN(S(=O)(=O)CCCNc3ccon3)CC2)sc1C(=O)c1c(F)cccc1F [Example V116] | 0 | 77
CC(C)(C)c1cc(NCCCS(=O)(=O)N2CCC(Nc3nc(N)c(C(=O)c4c(F)cccc4F)s3)CC2)no1 [Example V117] | 0 | 80
Nc1nc(NC2CCN(S(=O)(=O)CCCNCC3CCCCC3)CC2)sc1C(=O)c1c(F)cccc1F [Example V118] | 54 | 90
CCCCN(CC#N)CCCS(=O)(=O)N1CCC(Nc2nc(N)c(C(=O)c3c(F)cccc3F)s2)CC1 [Example V119] | 0 | 75
CCCCC(CO)NCCCS(=O)(=O)N1CCC(Nc2nc(N)c(C(=O)c3c(F)cccc3F)s2)CC1 (stereo not shown) [Example V120] | 6 | 89
C[C@H](NCCCS(=O)(=O)N1CCC(Nc2nc(N)c(C(=O)c3c(F)cccc3F)s2)CC1)C(N)=O [Example V121] | 4 | 77
NC(=O)CCNCCCS(=O)(=O)N1CCC(Nc2nc(N)c(C(=O)c3c(F)cccc3F)s2)CC1 [Example V122] | 32 | 79
Cc1ccc(CNCCCS(=O)(=O)N2CCC(Nc3nc(N)c(C(=O)c4c(F)cccc4F)s3)CC2)o1 [Example V123] | 5 | 76
CN(CCCS(=O)(=O)N1CCC(Nc2nc(N)c(C(=O)c3c(F)cccc3F)s2)CC1)CC(O)CO (stereo not shown) [Example V124] | 9 | 80
Nc1nc(NC2CCN(S(=O)(=O)CCCNCCSCCO)CC2)sc1C(=O)c1c(F)cccc1F [Example V125] | 5 | 87
